Legend:
Assay type in all cases: cell-based
[1] = test system: iPSCs expressing the HSV-TK-PSMA fusion; assay: ganciclovir killing of iPSCs transfected with HSV-TK-PSMA fusion (p1499), cell confluency by imaging; conditions: 1 μM ganciclovir
Procedure: (§1) The ability to induce cell death in cells expressing the HSV-TK-PSMA fusion or HSV-TK alone was next tested. […] The resulting plasmid (p1474; shown in FIG. 4) was sequenced and grown up for purification using the Qiagen maxi-prep kit. Next, iPSCs were transfected with the p1499 or p1474 plasmids. Transfected and untransfected cells were plated into 6 well dishes (2×10^5 cells/well) and treated with and without 1 μM ganciclovir and imaged at 24 and 48 hours to monitor cell growth. […] It will be appreciated by those skilled in the art that changes could be made to the embodiments described above without departing from the broad inventive concept thereof. It is understood, therefore, that this invention is not limited to the particular embodiments disclosed, but it is intended to cover modifications within the spirit and scope of the present invention as defined by the present description.

untransfected iPSCs = assay: ganciclovir treatment of untransfected iPSCs (WT control), cell confluency by imaging; conditions: 1 μM ganciclovir
Procedure: as §1

[2] = test system: iPSCs expressing HSV-TK alone; assay: ganciclovir killing of iPSCs transfected with HSV-TK alone (p1474), cell confluency by imaging; conditions: 1 μM ganciclovir, 24 and 48 hours
Procedure: as §1

[3] = test system: HSV-TK (A168H)-T2A-PSMA engineered iPSCs; assay: ganciclovir killing of HSV-TK (A168H)-T2A-PSMA engineered iPSCs, visual inspection; conditions: 1 uM ganciclovir, 60 hours
Source text: (§2) FIGS. 6A-6B show results from cells transfected with a HSV-TK […]-T2A-PSMA transgene.

[4] = test system: wild-type (WT; un-engineered) iPSCs; assay: ganciclovir treatment of wild-type (un-engineered) iPSCs, visual inspection; conditions: increasing concentrations of ganciclovir, 60 hours
Source text: as §2

Compound: Nc1nc(O)c2ncn(COC(CO)CO)c2n1 [ganciclovir]
- confluency compared with untreated cells ([1]; 24 and 48 hours): reduced confluency
- cell confluency ([1]; 48 hours, iPSCs expressing HSV-TK-PSMA): 6%
- effect on cell growth (untransfected iPSCs; 24 hours and 48 hours): no effect
- cell confluency (untransfected iPSCs; 48 hours, WT cells): 73%
- confluency compared with untreated cells [2]: reduced confluency
- killing [3]: ~100%
- effect on un-engineered cells [4]: unaffected
